From patent publication EP0812829A1, “Substituted imidazoles as modulators of multi-drug resistance” (ONTOGEN CORPORATION, priority 1996, dated 1997)
Where a name gives a salt, the structure may show the parent alone.

Key:
[1] = system: CEM/VLB1000 Cells; assay: Enhancement of 3H-vinblastine accumulation; assay type: cell-based; details: midpoint (EC50) of minimum and maximum increase in accumulation of 3H-vinblastine, 3H-vinblastine 550 nM, 3 hours at 37°C, read-out: [^3H]VLB Accumulation (µM) CEM/VLB1000 Cells
Method: Enhancement of ^3H-vinblastine accumulation was also measured in the cell line. Corning Easy-Wash 96 well plates were pretreated with PBS and 1% BSA for 60 minutes and then dried. CEM/VLB1000 cells were seeded at 2 x 10^5, 40 µL volume. Plates were incubated at 37°C for 30-60 minutes prior to use. The reference reversing agent, verapamil, or the compound of the present invention was added to the well followed by addition of media containing ^3H-vinblastine (final concentration = 550 nM). Plates were allowed to incubate for 3 hours at 37°C. Cells were harvested onto pretreated Wallace filtermats B (pretreated overnight with 0.1% polyethyleneimine) using a TomTek harvester-96. After filtering, the filtermats were allowed to dry completely. Meltix B scintillant was then added to the filtermats. The filters were then placed in a 90°C oven for approximately 3-5 minutes and then removed. Scintillant was allowed to solidify on the filtermats. Filtermats were then placed in sample bags and read on a Wallace BetaPlate scintillation counter. The effect of compounds of the present invention in the cytotoxicity potentiation assays and vinblastine (VLB) accumulation assay is given in the Table below: […]

[2] = system: CEM/VLB1000 Cells; assay: Cytotoxicity potentiation assay (alamar blue), vinblastine in CEM/VLB1000 cells; details: read-out: Cytotoxicity Potentiation (µM) CEM/VLB1000 Cells; midpoint (EC50) of minimum and maximum cytotoxicity induced by 5 µg/mL vinblastine and compound; 48 hours incubation, alamar blue 24 hours
Method: Multidrug-resistant cell lines are easily obtainable for in vitro determination of drug sensitization by compounds of the present invention. In vitro potentiation of antineoplastic cytotoxicity by the imidazole derivatives of the present invention was measured in both CEM/VLB1000 and SK/VLB1000 cell lines. The multidrug resistant cell lines-were obtained from Dr. Victor Ling, Ontario Cancer Institute, Toronto, Canada. The CEM/VLB 1000 cell line was maintained as a suspension in minimum essential medium supplemented with 10% of fetal bovine serum in a humidied atmosphere of 95% air and 5% CO2 while the SK/VLB 1000 cell line was maintained as adherent cells using the identical medium conditions as the CEM cells. The CEM/VLB 1000 cells were seeded at a density of 5 x 10^4 cells/well in a 96 well microtiter plate while the SK/VLB 1000 cell line was seeded at a density of 2,500 cells/well after trypsinization. Vinblastine (5 µg/mL, for the CEM cells) or Taxol (3 µg/mL, for the SK cells) and compound (0.01 to 50 µM) were added directly to the wells. After an incubation of 48 hours in presence of drug, alamar blue (B. Page et al., Int. J. Oncol. 3: 473-476, 1993) was added (20 µL to the 200 µL cell suspension) for a period of 24 hours after which the fluorescence (excitation = […], emission = […]) was read for each well using a "CytoFluor" microtiter fluorometer plate reader. This assay measures the minimal concentration of compound necessary to enhance the cytotoxicity (EC50) of vinblastine in the MDR cell line.

[3] = system: SK/VLB1000 Cells; assay: Cytotoxicity potentiation assay (alamar blue), Taxol in SK/VLB1000 cells; assay type: cell-based; details: midpoint (EC50) of minimum and maximum cytotoxicity; method: Taxol 3 µg/mL for the SK cells (footnote: 5 µg/mL vinblastine); 48 hours incubation, alamar blue 24 hours
Method: In vitro potentiation of antineoplastic cytotoxicity by the imidazole derivatives of the present invention was measured in both CEM/VLB1000 and SK/VLB1000 cell lines. The multidrug resistant cell lines-were obtained from Dr. Victor Ling, Ontario Cancer Institute, Toronto, Canada. The CEM/VLB 1000 cell line was maintained as a suspension in minimum essential medium supplemented with 10% of fetal bovine serum in a humidied atmosphere of 95% air and 5% CO2 while the SK/VLB 1000 cell line was maintained as adherent cells using the identical medium conditions as the CEM cells. The CEM/VLB 1000 cells were seeded at a density of 5 x 10^4 cells/well in a 96 well microtiter plate while the SK/VLB 1000 cell line was seeded at a density of 2,500 cells/well after trypsinization. Vinblastine (5 µg/mL, for the CEM cells) or Taxol (3 µg/mL, for the SK cells) and compound (0.01 to 50 µM) were added directly to the wells. After an incubation of 48 hours in presence of drug, alamar blue (B. Page et al., Int. J. Oncol. 3: 473-476, 1993) was added (20 µL to the 200 µL cell suspension) for a period of 24 hours after which the fluorescence (excitation = 530 nM, emission = 590 nM) was read for each well using a "CytoFluor" microtiter fluorometer plate reader. This assay measures the minimal concentration of compound necessary to enhance the cytotoxicity (EC50) of vinblastine in the MDR cell line.

Structure (SMILES) | EC50 [1] | EC50 [2] | EC50 [3]
Oc1ccc(-c2nc(-c3ccccc3)c(-c3ccccc3)n2-c2ccccc2)cc1 [Example 1, 2-(4-hydroxyphenyl)-1,4,5-triphenyl-imidazole trifluoroacetic acid salt] | 20 µM |  | 
COc1ccc(-c2nc(-c3ccc(O)cc3)n(Cc3ccccc3)c2-c2ccc(OC)cc2)cc1 [Example 2, 1-benzyl-2-(4-hydroxyphenyl)-4,5-di-(4-methoxyphenyl)-imidazole trifluoroacetic acid salt] | 2 µM |  | 
CN(C)c1ccc(-c2nc(-c3ccc(C(=O)O)cc3)[nH]c2-c2ccc(N(C)C)cc2)cc1 [Example 3, 2-(4-carboxyphenyl)-4,5-di-[4-(dimethylamino)-phenyl]-1(H)-imidazole] |  | 10 µM | 
COC(=O)c1ccc(-c2nc(-c3ccc(N(C)C)cc3)c(-c3ccc(N(C)C)cc3)[nH]2)cc1 [Example 4, 4,5-di-[4-(dimethylamino)-phenyl]-2-[4-(methoxycarbonyl)-phenyl]-1(H)-imidazole] | 5 µM | 0.3 µM | 1 µM
CCCCCCn1c(-c2ccc(C(=O)O)cc2)nc(-c2ccc(N(C)C)cc2)c1-c1ccc(N(C)C)cc1 [Example 5, 2-(4-carboxyphenyl)-4,5-di-[4-(dimethylamino)-phenyl]-1-(n-hexyl)-imidazole] | 12 µM | 3 µM | 10 µM
CCCCCCn1c(-c2ccc(C(=O)OC)cc2)nc(-c2ccc(N(C)C)cc2)c1-c1ccc(N(C)C)cc1 [Example 6, 4,5-di-[4-(dimethylamino)-phenyl]-1-(n-hexyl)-2-[4-(methoxycarbonyl)-phenyl]-imidazole] |  | 5 µM | 
CN(C)c1ccc(-c2nc(-c3ccc(/C=C/C(=O)O)cc3)[nH]c2-c2ccc(N(C)C)cc2)cc1 [Example 7, 2-[4-(trans-2-carboxyethenyl)-phenyl] -4,5-di-[4-(dimethylamino)-phenyl]-1(H)-imidazole] |  | 10 µM | 
COC(=O)C=Cc1ccc(-c2nc(-c3ccc(N(C)C)cc3)c(-c3ccc(N(C)C)cc3)[nH]2)cc1 [Example 8, 4,5-di-[4-(dimethylamino)-phenyl]-2-{4-[trans-(2-methoxycarbonyl)-ethenyl]-phenyl}-1(H)-imidazole] | 5 µM | 0.3 µM | 0.3 µM
CN(C)c1ccc(-c2nc(-c3ccc(O)cc3)[nH]c2-c2ccc(N(C)C)cc2)cc1 [Example 9, 4,5-di-[4-(dimethylamino)-phenyl]-2-(4-hydroxyphenyl)-1(H)-imidazole] | 20 µM | 10 µM | 10 µM
CN(C)c1ccc(-c2nc(-c3ccc(O)cc3)n(CCc3ccccc3)c2-c2ccc(N(C)C)cc2)cc1 [Example 10, 4,5-di-[4-(dimethylamino)-phenyl]-2-(4-hydroxyphenyl)-1-(2-phenylethyl)-imidazole] | 10 µM | 2 µM | 
CN(C)c1ccc(-c2nc(-c3ccc(C(=O)O)cc3)n(CCc3ccccc3)c2-c2ccc(N(C)C)cc2)cc1 [Example 11, 2-(4-carboxyphenyl)-4,5-di-[4-(dimethylamino)-phenyl]-1-(2-phenylethyl)-imidazole] |  | 10 µM | 
CN(C)c1ccc(-c2nc(-c3ccc(/C=C/C(=O)O)cc3)n(CCc3ccccc3)c2-c2ccc(N(C)C)cc2)cc1 [Example 12, 2-[4-(trans-2-carboxyethenyl)-phenyl]-4,5-di-[4-(dimethylamino)-phenyl]-1-(2-phenylethyl)-imidazole] |  | 10 µM | 
COC(=O)/C=C/c1ccc(-c2nc(-c3ccc(OC)cc3)c(-c3ccc(OC)cc3)n2CCCCCC(=O)OC)cc1 [Example 13, 4,5-di-(4-methoxyphenyl)-2-{4-[trans-(2-methoxycarbonyl)-ethenyl]-phenyl}-1-[5-(methoxycarbonyl)-n-pentyl)-imidazole] |  | 0.6 µM | 
COc1ccc(-c2nc(-c3ccc(/C=C/c4ccccc4)cc3)n(CCCn3ccnc3)c2-c2ccc(OC)cc2)cc1 [Example 14, 2-(trans-4-stilbenyl)-1-[3-(imidazol-1-yl)-n-propyl]-4,5-di-(4-methoxyphenyl)-imidazole] |  | 0.4 µM | 1 µM
COC(=O)/C=C/c1ccc(-c2nc(-c3ccc(N(C)C)cc3)c(-c3ccc(N(C)C)cc3)n2CCCCCC(=O)OC)cc1 [Example 15, 4,5-di-[4-(dimethylamino)-phenyl]-2-{4-[trans-(2-methoxycarbonyl)-ethenyl]-phenyl}-1-[5-(methoxycarbonyl)-n-pentyl-]-imidazole] |  | 0.6 µM | 5 µM
CCCCCCn1c(-c2ccc(OCCCN(C)C)cc2)nc(-c2ccc(OC)cc2)c1-c1ccc(OC)cc1 [Example 16, 4,5-di-(4-methoxyphenyl)-2-{4-[3-(dimethylamino)-propyloxy]-phenyl}-1-(n-hexyl)-imidazole] |  | 2 µM | 10 µM
